Common to all, as to type: cell-based
One test addresses T1, human TLR9 (Homo sapiens, UniProt Q9NR96).
T1 construct: host or cells: HEK-Blue cells
T1 sequence (Q9NR96 26-1032): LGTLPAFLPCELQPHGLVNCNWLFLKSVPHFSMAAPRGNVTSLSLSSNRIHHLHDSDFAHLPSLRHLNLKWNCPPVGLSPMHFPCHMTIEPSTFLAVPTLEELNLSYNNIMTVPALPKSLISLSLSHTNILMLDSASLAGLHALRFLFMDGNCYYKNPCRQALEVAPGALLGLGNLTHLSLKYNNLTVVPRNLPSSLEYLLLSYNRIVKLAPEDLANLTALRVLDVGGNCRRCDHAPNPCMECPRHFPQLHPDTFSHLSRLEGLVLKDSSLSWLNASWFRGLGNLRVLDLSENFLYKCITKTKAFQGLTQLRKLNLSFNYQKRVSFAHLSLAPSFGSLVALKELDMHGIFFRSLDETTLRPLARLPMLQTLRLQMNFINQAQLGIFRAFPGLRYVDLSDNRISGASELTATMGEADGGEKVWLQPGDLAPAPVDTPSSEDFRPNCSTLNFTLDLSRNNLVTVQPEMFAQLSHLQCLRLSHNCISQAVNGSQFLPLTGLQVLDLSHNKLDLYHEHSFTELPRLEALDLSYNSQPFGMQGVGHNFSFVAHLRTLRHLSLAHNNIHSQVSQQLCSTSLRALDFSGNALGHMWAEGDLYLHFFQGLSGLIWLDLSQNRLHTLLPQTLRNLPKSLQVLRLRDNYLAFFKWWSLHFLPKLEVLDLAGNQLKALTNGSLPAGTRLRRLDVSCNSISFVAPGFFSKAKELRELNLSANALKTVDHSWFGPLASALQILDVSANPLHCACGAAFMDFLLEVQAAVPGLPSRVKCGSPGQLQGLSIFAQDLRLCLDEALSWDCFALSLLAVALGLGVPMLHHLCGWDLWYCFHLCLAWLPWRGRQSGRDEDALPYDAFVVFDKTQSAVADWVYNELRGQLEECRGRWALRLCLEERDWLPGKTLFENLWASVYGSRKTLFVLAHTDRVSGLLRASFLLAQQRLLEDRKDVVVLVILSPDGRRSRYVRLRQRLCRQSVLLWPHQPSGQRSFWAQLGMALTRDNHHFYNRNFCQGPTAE
Put plainly: TLR9 inhibition reporter assay (HEK-Blue cells, SEAP reporter). The conditions noted are these: HEK-Blue cells overexpressing human TLR9; stimulated with ODN2006 5 nM; SEAP read after 22 hour; dose range 0.05 nM-50 μM. The procedure: (§1) HEK-Blue™-cells (Invivogen) overexpressing human TLR7, TLR8 or TLR9 receptors were used for screening inhibitors of these receptors using an inducible SEAP (secreted embryonic alkaline phosphatase) reporter gene under the control of the IFN-β minimal promoter fused to five NF-κB and AP-1-binding sites. Briefly, cells are seeded into Greiner 384 well plates (15000 cells per well for TLR7, 20,000 for TLR8 and 25,000 for TLR9) and then treated with test compounds in DMSO to yield a final dose response concentration range of 0.05 nM-50 μM. After a 30 minute compound pre-treatment at room temperature, the cells are then stimulated with a TLR7 ligand (gardiquimod at a final concentration of 7.5 μM), TLR8 ligand (R848 at a final concentration of 15.9 μM) or TLR9 ligand (ODN2006 at a final concentration of 5 nM) to activate NF-κB and AP-1 which induce the production of SEAP. After a 22 hour incubation at 37° C., 5% CO2, SEAP levels are determined with the addition of HEK-Blue™ Detection reagent (Invivogen), a cell culture medium that allows for detection of SEAP, according to manufacturer's specifications. The percent inhibition is determined as the % reduction in the HEK-Blue signal present in wells treated with agonist plus DMSO alone compared to wells treated with a known inhibitor.
On the technique in general: In a reporter assay the amount or activity of a reporter protein is the signal.

The next test deals with T2, human TLR8 (Homo sapiens, UniProt Q9NR97).
T2 construct: host or cells: HEK-Blue cells
T2 sequence (Q9NR97 27-1041): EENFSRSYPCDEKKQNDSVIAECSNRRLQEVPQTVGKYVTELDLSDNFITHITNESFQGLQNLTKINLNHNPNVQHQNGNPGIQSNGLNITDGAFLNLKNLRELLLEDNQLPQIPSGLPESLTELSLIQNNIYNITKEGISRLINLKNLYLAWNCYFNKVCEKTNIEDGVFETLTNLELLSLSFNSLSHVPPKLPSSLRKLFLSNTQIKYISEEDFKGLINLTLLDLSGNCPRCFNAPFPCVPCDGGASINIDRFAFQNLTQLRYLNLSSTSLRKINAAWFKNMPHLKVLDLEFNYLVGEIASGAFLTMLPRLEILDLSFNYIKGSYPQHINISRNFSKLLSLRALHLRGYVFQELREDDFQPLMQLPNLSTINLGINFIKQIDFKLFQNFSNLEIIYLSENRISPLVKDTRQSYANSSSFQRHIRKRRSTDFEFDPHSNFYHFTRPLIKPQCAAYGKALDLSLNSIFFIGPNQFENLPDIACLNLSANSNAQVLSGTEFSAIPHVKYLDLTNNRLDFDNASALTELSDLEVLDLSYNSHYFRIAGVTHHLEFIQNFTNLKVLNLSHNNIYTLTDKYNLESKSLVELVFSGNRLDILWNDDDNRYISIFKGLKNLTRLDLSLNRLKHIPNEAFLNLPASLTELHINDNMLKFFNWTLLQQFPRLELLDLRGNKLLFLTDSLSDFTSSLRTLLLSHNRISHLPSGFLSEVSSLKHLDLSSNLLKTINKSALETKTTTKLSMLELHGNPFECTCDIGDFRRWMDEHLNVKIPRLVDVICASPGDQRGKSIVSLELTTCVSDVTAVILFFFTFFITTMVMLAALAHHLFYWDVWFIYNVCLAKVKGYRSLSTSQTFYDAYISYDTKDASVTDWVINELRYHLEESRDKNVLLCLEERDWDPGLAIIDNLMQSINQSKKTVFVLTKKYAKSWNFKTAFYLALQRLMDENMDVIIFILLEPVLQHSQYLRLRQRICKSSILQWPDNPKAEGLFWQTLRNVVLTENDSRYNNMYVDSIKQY
Put plainly: TLR8 inhibition reporter assay (HEK-Blue cells, SEAP reporter). The settings on record: HEK-Blue cells overexpressing human TLR8; stimulated with R848 15.9 μM; SEAP read after 22 hour; dose range 0.05 nM-50 μM. The protocol: as §1

In another test the target is T3, human TLR7 (Homo sapiens, UniProt Q9NYK1).
T3 construct: host or cells: HEK-Blue cells
T3 sequence (Q9NYK1 27-1049): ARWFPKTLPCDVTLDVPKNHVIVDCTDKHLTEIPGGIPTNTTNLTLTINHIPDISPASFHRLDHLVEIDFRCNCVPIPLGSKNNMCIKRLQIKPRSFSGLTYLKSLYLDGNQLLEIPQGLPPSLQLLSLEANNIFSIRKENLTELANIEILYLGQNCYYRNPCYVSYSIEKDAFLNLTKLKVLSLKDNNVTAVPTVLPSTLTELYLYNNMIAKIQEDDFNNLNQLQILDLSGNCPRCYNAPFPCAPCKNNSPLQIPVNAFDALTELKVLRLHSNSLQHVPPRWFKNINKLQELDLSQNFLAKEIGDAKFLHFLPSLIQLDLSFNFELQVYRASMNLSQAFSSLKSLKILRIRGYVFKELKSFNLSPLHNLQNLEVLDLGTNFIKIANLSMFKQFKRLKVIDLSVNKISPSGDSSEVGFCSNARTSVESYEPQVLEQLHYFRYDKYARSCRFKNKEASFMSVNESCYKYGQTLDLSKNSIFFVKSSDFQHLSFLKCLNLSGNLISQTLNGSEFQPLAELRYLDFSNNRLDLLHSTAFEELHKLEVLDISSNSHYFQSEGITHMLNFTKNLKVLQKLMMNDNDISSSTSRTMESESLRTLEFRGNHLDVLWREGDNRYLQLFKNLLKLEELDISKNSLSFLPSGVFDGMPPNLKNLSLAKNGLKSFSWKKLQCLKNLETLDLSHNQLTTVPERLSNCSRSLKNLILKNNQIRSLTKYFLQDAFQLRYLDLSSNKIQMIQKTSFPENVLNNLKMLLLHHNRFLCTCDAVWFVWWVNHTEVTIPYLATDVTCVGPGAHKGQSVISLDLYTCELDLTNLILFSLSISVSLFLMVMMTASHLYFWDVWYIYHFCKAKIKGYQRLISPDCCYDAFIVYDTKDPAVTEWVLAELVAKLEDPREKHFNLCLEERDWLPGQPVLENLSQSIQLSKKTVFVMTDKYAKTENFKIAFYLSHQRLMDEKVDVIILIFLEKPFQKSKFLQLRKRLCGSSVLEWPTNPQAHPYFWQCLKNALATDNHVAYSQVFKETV
The test can be described thus: TLR7 inhibition reporter assay (HEK-Blue cells, SEAP reporter). The settings on record: HEK-Blue cells overexpressing human TLR7; stimulated with gardiquimod 7.5 μM; SEAP read after 22 hour; dose range 0.05 nM-50 μM. The procedure:
as §1

For the compound `CCc1c(-c2ccc(OC)c(OC)c2)c(=O)[nH]c2ccc(C3CCN(C4CCN(C(C)C)CC4)CC3)cc12` [Example 63, 3-(3,4-dimethoxyphenyl)-4-ethyl-6-[1′-(propan-2-yl)-[1,4′-bipiperidine]-4-yl]-1,2-dihydroquinolin-2-one], the IC50 against human TLR9 stood at 27 nM; against human TLR8, 11000 nM; against human TLR7, 2810 nM.
Turning to `CC(C)N1CCN(c2ccc(-c3ccc4[nH]c(=O)c(-c5c(F)c(F)c(F)c(F)c5F)cc4c3)cc2)CC1` [Example 40, 3-(2,3,4,5,6-pentafluorophenyl)-6-{4-[4-(propan-2-yl)piperazin-1-yl]phenyl}-1,2-dihydroquinolin-2-one], the IC50 on human TLR9 was 399 nM; on human TLR8, at least 50000 nM; at human TLR7, at least 50000 nM.
Take `CC(C)N1CCN(c2ccc(-c3ccc4c(c3)cc(-c3ccc(S(C)(=O)=O)cc3)c(=O)n4C)cc2)CC1` [Example 27, 3-(4-methanesulfonylphenyl)-1-methyl-6-{4-[4-(propan-2-yl)piperazin-1-yl]phenyl}-1,2-dihydroquinolin-2-one]: the figures for the IC50 on human TLR9, against human TLR8 and against human TLR7 were 233 nM, 1040 nM and 2500 nM, respectively.
The like results for `CC(C)N1CCN(c2ccc(-c3ccc4[nH]c(=O)c(-c5cccc(C(F)(F)F)c5)cc4c3)cc2)CC1` [Example 45, 6-{4-[4-(propan-2-yl)piperazin-1-yl]phenyl}-3-[3-(trifluoromethyl)phenyl]-1,2-dihydroquinolin-2-one] were, in that order, 734 nM, at least 50000 nM and at least 50000 nM.
In the same order, the values of `CC(C)N1CCN(c2ccc(-c3ccc4[nH]c(=O)c(-c5cccc(F)c5)cc4c3)cc2)CC1` [Example 47, 3-(3-fluorophenyl)-6-{4-[4-(propan-2-yl)piperazin-1-yl]phenyl}-1,2-dihydroquinolin-2-one] are 857 nM, at least 50000 nM and 8620 nM.
In the same order, the values of `CC(C)N1CCC(c2ccc(-c3ccc4[nH]c(=O)c(-c5ccc(S(C)(=O)=O)cc5)cc4c3)cc2)CC1` [Example 71, 3-(4-methanesulfonylphenyl)-6-{4-[1-(propan-2-yl)piperidin-4-yl]phenyl}-1,2-dihydroquinolin-2-one] are 140 nM, 9280 nM and 29900 nM.
Take `CC(C)N1CCN(c2ccc(-c3ccc4[nH]c(=O)c(-c5ccc(N6CCCC6=O)cc5)cc4c3)cc2)CC1` [Example 56, 3-[4-(2-oxopyrrolidin-1-yl)phenyl]-6-{4-[4-(propan-2-yl)piperazin-1-yl]phenyl}-1,2-dihydroquinolin-2-one]: the IC50 on human TLR9 is 400 nM; at human TLR8 it was at least 50000 nM; against human TLR7, 5980 nM.
In the same order, the values of `CC(C)N1CCN(c2ccc(-c3ccc4[nH]c(=O)c(-c5cccc(OC(F)(F)F)c5)cc4c3)cc2)CC1` [Example 46, 6-{4-[4-(propan-2-yl)piperazin-1-yl]phenyl}-3-[3-(trifluoromethoxy)phenyl]-1,2-dihydroquinolin-2-one] are 781 nM, at least 50000 nM and at least 50000 nM.
Turning to `CC(C)C(=O)Nc1ccc(-c2cc3cc(-c4ccc(N5CCN(C(C)C)CC5)cc4)ccc3n(C)c2=O)cc1` [Example 26, 2-methyl-N-[4-(1-methyl-2-oxo-6-{4-[4-(propan-2-yl)piperazin-1-yl]phenyl}-1,2-dihydroquinolin-3-yl)phenyl]propanamide], the IC50 stood at 231 nM against human TLR9, 673 nM against human TLR8 and 1800 nM at human TLR7.
For the compound `CC(C)N1CCN(c2ccc(-c3ccc4[nH]c(=O)c(-c5ccc(N(C)C6CN(C)C6)cc5)cc4c3)cc2)CC1` [Example 51, 3-{4-[methyl(1-methylazetidin-3-yl)amino]phenyl}-6-{4-[4-(propan-2-yl)piperazin-1-yl]phenyl}-1,2-dihydroquinolin-2-one], the concentration for half-maximal inhibition (IC50) against human TLR9 worked out at 242 nM; on human TLR8, 47000 nM; at human TLR7, 1340 nM.
Consider `Cc1ccccc1-c1cc2cc(-c3ccc(N4CCN(C(C)C)CC4)cc3)ccc2[nH]c1=O` [Example 25, 3-(2-methylphenyl)-6-{4-[4-(propan-2-yl)piperazin-1-yl]phenyl}-1,2-dihydroquinolin-2-one], for which the IC50 against human TLR9 came to 226 nM; on human TLR8, 1390 nM; against human TLR7, 6480 nM.

The term IC50 denotes the point on the concentration scale where inhibition reaches its midpoint. A low value points to higher potency.

Values taken from US20260183275A1, “SUBSTITUTED QUINOLONE COMPOUNDS USEFUL AS INHIBITORS OF TLR9” (Bristol-Myers Squibb Company, priority 2022, published 2026).
